Measurements published in US10077309B2, “Compositions and methods for targeting of the surfactant protein A receptor” (The Penn State Research Foundation, priority 2014, dated 2018).

Test system: IAV infection of macrophages / influenza binding to SP-R210
Type: cell-based, influenza A virus

## SP-A: human surfactant protein A isolated from therapeutic lung lavage of alveolar proteinosis patients
  competition with influenza virus for binding to the receptor SP-R210: competitively inhibits binding of the influenza virus to the receptor

## desialylated SP-A: desialylated surfactant protein A
  competition with influenza virus for binding to the receptor SP-R210: compete for influenza binding to the same receptor
Flow cytometry
  block of infection of macrophages with IAV: blocks infection of macrophages with IAV
